Data taken from ChEMBL document CHEMBL1201862, “PubChem BioAssay data set” (2004).
Activity calls are given as the source filed them.

Tests used:
Cytochrome P450 3A4 = Cytochrome P450 3A4 (Homo sapiens, UniProt P08684);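 also: CYP3A4 tested as one member of a cytochrome P450 panel screen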
[1] = target: T1, Calpain-2 catalytic subunit (Sus scrofa, UniProt P43367); test: m-calpain protease blockers, concentration series – biochemical, fluorogenic peptide substrate, dose response (AID 1420); type: functional
T1 sequence (P43367 whole entry): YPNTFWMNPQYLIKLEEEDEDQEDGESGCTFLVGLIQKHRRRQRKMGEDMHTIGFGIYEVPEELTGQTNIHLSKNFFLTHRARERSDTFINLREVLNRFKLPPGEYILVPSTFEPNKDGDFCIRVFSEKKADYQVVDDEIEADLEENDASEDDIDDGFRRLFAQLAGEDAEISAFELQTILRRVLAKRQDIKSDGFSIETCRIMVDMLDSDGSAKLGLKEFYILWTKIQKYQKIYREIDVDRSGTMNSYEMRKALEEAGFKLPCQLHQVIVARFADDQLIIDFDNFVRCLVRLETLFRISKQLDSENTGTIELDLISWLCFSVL

cells = type: functional
Cytochrome P450 2C9 = Cytochrome P450 2C9 (Homo sapiens, UniProt P11712)
Cytochrome P450 1A2 = target: T2, Cytochrome P450 1A2 (Homo sapiens, UniProt P05177);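 also: PubChem cytochrome P450 panel assay, CYP1A2 panel member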
T2 sequence (P05177 whole entry): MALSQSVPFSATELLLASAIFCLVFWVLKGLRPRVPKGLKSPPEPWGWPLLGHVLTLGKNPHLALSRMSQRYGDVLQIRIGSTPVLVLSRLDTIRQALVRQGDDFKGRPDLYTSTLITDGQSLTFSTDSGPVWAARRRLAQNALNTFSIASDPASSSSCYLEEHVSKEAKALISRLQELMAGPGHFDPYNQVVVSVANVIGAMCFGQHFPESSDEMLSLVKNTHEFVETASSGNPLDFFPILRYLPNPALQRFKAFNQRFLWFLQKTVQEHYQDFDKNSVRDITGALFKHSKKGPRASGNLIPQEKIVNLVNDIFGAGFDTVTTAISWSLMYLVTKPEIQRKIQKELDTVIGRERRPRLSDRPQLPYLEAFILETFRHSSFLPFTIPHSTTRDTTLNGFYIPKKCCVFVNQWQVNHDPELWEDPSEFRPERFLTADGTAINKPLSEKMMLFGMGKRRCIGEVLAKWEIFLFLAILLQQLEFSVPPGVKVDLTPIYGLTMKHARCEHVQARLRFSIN

[2] = Luminescence Cell-Based Dose Retest to Confirm Inhibitors of Cancer Stem Cells. [Related pubchem assays (depositor defined):AID2717, AID2721]; type: functional; settings: Homo sapiens
Streptococcus = test: GAS UMAA2166 growth inhibition – luminescence, BacTiterGlo, counter-screen for streptokinase expression inhibitor project, dose response (AID 1915); type: functional, organism-based;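 also: potency for reduction of bacterial viability or growth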
[3] = viability of HCT116 lacking mutant beta-catenin – cell-based, human colon tumor, dose response (AID 1045); type: functional;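 also: HCT116 colon tumor cells with beta catenin knocked out; cells exposed to compound for 60 hours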
[4] = viability of PTEN-deleted HCT116 cells – cell-based, HCT116 PTEN knockout, dose response (AID 1047); type: functional;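 also: HCT116 colon tumor cells with PTEN knocked out; cells exposed to compound for 60 hours before readout; potency for loss of cell viability measured by luminescence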
[5] = test system: Streptococcus sp. 'group A'; test: Streptococcus pyogenes SK(-)GAS viability under kanamycin – luminescence, BacTiterGlo, confirmation, counter-screen for streptokinase expression inhibitor project, dose response (AID 1900); type: functional, organism-based
Cytochrome P450 2D6 = Cytochrome P450 2D6 (Homo sapiens, UniProt P10635);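 also: CYP2D6 member of a cytochrome P450 panel assay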
[6] = target: T3, Corticotropin-releasing factor receptor 2/Corticotropin-releasing factor-binding protein (Homo sapiens, UniProt P24387+Q13324); test: activators of CRF receptor 2 with binding protein – uHTS hits, confirmation (AID 602473); type: functional; settings: read-out: EC50_Mean
T3 sequence (Q13324 whole entry): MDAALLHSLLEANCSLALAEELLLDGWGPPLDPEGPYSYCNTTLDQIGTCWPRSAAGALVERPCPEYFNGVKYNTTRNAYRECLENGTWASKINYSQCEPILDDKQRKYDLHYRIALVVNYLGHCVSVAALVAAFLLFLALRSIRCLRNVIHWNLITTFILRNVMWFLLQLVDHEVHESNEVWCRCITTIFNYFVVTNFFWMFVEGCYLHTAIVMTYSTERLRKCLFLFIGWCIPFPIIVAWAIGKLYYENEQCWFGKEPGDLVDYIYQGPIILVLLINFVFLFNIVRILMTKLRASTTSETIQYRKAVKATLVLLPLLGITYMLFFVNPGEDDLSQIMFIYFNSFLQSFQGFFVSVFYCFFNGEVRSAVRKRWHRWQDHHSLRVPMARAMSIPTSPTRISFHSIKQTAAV
T3 sequence (P24387 whole entry): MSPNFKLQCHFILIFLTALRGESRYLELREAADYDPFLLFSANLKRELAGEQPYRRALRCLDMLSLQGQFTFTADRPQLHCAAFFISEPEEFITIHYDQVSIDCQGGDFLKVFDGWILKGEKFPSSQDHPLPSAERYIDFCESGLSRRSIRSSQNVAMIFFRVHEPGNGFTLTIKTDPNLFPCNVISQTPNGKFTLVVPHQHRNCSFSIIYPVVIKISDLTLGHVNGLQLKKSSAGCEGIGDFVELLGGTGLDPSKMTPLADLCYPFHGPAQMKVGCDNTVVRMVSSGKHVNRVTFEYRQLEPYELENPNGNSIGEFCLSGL

Streptokinase A = target: T4, Streptokinase A (Streptococcus pyogenes serotype M1, UniProt P10520); test: viability-normalized secreted streptokinase activity reduction – plasminogen activation absorbance, OD405, dose response (AID 1914); type: functional, Streptococcus pyogenes M1 GAS;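 also: secreted streptokinase activity via plasminogen activation per viability signal from cell pellet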
T4 sequence (P10520 whole entry): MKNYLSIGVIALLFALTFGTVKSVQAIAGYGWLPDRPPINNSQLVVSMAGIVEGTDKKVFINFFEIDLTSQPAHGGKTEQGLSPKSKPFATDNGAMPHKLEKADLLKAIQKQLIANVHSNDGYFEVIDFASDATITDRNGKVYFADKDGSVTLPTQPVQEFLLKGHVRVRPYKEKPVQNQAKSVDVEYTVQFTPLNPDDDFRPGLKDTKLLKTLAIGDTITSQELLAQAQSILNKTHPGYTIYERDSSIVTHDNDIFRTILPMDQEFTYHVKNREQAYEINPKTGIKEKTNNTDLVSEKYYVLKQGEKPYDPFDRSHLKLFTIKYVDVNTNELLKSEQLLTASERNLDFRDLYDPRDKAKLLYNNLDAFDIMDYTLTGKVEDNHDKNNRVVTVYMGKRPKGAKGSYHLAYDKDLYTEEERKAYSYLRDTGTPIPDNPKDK

Sequence of Cytochrome P450 2C9 (P11712 whole entry): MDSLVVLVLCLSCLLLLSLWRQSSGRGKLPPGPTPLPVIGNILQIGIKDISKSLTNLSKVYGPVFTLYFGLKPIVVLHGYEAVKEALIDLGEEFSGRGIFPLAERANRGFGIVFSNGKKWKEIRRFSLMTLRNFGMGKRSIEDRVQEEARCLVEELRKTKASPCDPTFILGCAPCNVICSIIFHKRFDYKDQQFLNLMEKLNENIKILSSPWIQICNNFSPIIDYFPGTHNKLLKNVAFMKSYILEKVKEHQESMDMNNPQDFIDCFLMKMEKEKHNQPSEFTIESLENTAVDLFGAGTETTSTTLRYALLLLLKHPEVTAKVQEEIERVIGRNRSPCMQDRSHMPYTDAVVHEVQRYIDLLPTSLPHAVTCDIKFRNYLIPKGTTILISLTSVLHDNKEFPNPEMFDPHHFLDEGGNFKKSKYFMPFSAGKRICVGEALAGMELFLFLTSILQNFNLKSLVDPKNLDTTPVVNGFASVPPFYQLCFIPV
Sequence of Cytochrome P450 3A4 (P08684 whole entry): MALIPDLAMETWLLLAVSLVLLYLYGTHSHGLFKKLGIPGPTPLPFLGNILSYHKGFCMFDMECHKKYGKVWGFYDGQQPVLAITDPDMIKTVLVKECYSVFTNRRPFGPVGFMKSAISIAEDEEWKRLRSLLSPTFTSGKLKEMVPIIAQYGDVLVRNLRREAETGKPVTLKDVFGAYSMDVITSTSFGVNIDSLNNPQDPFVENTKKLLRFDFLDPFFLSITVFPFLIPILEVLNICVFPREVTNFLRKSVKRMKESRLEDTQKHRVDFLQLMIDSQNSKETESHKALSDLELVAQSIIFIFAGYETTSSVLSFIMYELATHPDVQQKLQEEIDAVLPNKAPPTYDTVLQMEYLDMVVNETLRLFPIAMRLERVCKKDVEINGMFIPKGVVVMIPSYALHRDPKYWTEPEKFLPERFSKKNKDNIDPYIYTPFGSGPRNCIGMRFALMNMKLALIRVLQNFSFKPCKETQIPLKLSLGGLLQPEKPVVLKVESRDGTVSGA
Sequence of Cytochrome P450 2D6 (P10635 whole entry): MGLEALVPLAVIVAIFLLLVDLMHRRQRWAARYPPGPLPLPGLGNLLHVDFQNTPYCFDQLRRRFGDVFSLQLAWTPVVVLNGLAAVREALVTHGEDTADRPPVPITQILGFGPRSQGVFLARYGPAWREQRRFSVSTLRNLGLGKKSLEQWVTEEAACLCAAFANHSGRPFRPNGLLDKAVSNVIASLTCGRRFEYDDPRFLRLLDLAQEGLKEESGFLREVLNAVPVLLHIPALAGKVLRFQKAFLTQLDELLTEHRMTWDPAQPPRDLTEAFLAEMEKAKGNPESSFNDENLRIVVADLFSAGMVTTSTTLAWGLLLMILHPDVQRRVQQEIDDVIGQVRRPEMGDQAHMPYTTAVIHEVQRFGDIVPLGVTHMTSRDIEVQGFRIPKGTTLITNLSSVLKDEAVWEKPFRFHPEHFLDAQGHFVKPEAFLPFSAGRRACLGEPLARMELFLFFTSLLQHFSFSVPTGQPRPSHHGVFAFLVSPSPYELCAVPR

N#CCCn1c(=O)c(-c2ccc(Cl)cc2)nc2cnc(N3CCNCC3)nc21
AC50 (Cytochrome P450 3A4): 25.1 µM (inconclusive)

O=[N+]([O-])C(=C1Nc2ccccc2N1)C(Cl)=C(Cl)Cl
IC50 [1]: 27.8 µM (not active)

CC1CCCCN1C(=O)c1cc(-c2ccc(Cl)c(Cl)c2)on1 (configuration not stated)
IC50 [1]: 3.9 µM (not active)

N#Cc1cc([N+](=O)[O-])ccc1NC(=O)COC(=O)C12CC3CC(CC(C3)C1)C2
IC50 [1]: 14.4 µM (not active)

O=C(Nc1ccccc1)N1CC[C@@]2(CCCN(C(=O)c3cccc(F)c3)C2)C1
AC50 (Cytochrome P450 3A4): 25.1 µM (inconclusive)

COc1ccc(NC(=O)C2CCCN(S(=O)(=O)c3cccc4cccnc34)C2)c(OC)c1 (configuration not stated)
IC50 [1]: 4.57 µM (not active)

COc1ccc2cc(C(=O)C3CCCN(Cc4ccccn4)C3)ccc2c1 (configuration not stated)
IC50 (cells): 5.03 µM (active)

C=CCNc1cnn(-c2ccc(C)cc2)c(=O)c1Sc1ccc(C)cc1
IC50 [1]: > 50 µM (not active)

O=C(Nc1cccc(Br)c1)/C(=C\c1cccnc1)NC(=O)c1ccco1
AC50 (Cytochrome P450 2C9): 39.8 µM (inconclusive)
AC50 (Cytochrome P450 1A2): 31.6 µM (inconclusive)

COc1cccc(C2C3=C(CC(C)(C)CC3=O)OC(N)=C2[N+](=O)[O-])c1 (configuration not stated)
AC50 (Cytochrome P450 2C9): 12.6 µM (inconclusive)
AC50 (Cytochrome P450 3A4): 15.8 µM (inconclusive)

COCc1c(C(N)=O)nnn1-c1nonc1N
AC50 (Cytochrome P450 1A2): 25.1 µM (inconclusive)

CC(C)Oc1cccnc1N(C)C1CCN(Cc2ccccc2)CC1
AC50 (Cytochrome P450 3A4): 15.8 µM (inconclusive)

O=C(C1=C[C@H](c2ccc(C(F)(F)F)cc2)C[C@H](OCc2ccc(CO)cc2)O1)N1CCCCCCC1
IC50 [1]: 14.8 µM (not active)

O=[N+]([O-])c1cc(C(F)(F)F)ccc1NCCN=C(S)Nc1ccc(Cl)cc1
AC50 [2]: 3.04 µM (active)
EC50 (Streptococcus): 7.65 µM (active)
EC50 [3]: 14.9 µM (active)
EC50 [4]: 11.7 µM (active)
EC50 [5]: 7.05 µM (active)

CC1(C)CO[C@H](CC(=O)O)CN1
AC50 (Cytochrome P450 2C9): 39.8 µM (inconclusive)
AC50 (Cytochrome P450 1A2): 31.6 µM (inconclusive)

CN(C1CCCCC1)S(=O)(=O)c1ccc(S(=O)(=O)N2CCCC2)cc1
IC50 [1]: 10.4 µM (not active)

CC1(C)S[C@@H]2[C@H](C(=O)O)N=C(Cc3ccccc3)N2[C@H]1C(=O)O
AC50 (Cytochrome P450 1A2): 6.31 µM (inconclusive)

CC(C)N1CCC(=NNC(=O)c2ccc(Br)o2)CC1
AC50 (Cytochrome P450 1A2): 17.8 µM (inconclusive)
AC50 (Cytochrome P450 2D6): 10 µM (inconclusive)

C/C(=N\NC(=O)COc1ccc(C(C)(C)C)cc1)c1ccccc1
IC50 [1]: 5.74 µM (not active)

Cc1noc(NS(=O)(=O)c2ccc(NC(=O)c3ccc(Br)o3)cc2)c1C
AC50 (Cytochrome P450 2C9): 14.1 µM (inconclusive)
AC50 (Cytochrome P450 3A4): 39.8 µM (inconclusive)

Cc1cccc(Oc2ccc(NC(=O)c3ccccc3C(=O)O)cc2)c1C
EC50 [6]: 8.97 µM (active)

N[C@H](C(=O)O)c1cccc(O)c1
AC50 (Cytochrome P450 1A2): 39.8 µM (inconclusive)

COc1cc2c(cc1OC)CN(CCC(=O)c1ccc(Br)cc1)CC2
IC50 (cells): 16.5 µM (active)

COc1ccc(Oc2nc(C)cc(C)c2S(=O)(=O)c2ccc(C)cc2)cc1
AC50 (Cytochrome P450 3A4): 1.12 µM (inconclusive)

COc1cc(OC)cc(C(=O)N/N=C/c2ccc(OC)c(COc3ccc(F)cc3)c2)c1
EC50 [6]: > 53 µM (inactive)

Cn1c(=O)c2[nH]c(SCCN3CCOCC3)nc2n(C)c1=S
AC50 (Cytochrome P450 2C9): 6.31 µM (inconclusive)
AC50 (Cytochrome P450 1A2): 0.631 µM (inconclusive)
AC50 (Cytochrome P450 3A4): 3.16 µM (inconclusive)

Cc1cccc(Cc2cnc(NC(=O)C3=NCCN3)s2)c1
IC50 (cells): 4.6 µM (active)

O=C(COC(=O)CC1c2ccccc2CCN1S(=O)(=O)c1ccccc1)Nc1ccccc1 (configuration not stated)
IC50 [1]: 8.09 µM (not active)

NS(=O)(=O)c1ccc(/N=N\c2nc3c(O)nc(O)nc3[nH]2)cc1
AC50 (Cytochrome P450 3A4): 0.631 µM (inconclusive)

COc1ccccc1CNCc1cccs1
AC50 (Cytochrome P450 3A4): 17.8 µM (inconclusive)

O=c1c(-c2ccc(F)cc2)nc2cnc(N3CCOCC3)nc2n1Cc1ccc(F)cc1
AC50 (Cytochrome P450 1A2): 20 µM (inconclusive)
AC50 (Cytochrome P450 2D6): 39.8 µM (inconclusive)

COc1ccc(C(=O)N2CCC3(CCCN(c4ncccn4)C3)CC2)cc1
AC50 (Cytochrome P450 1A2): 20 µM (inconclusive)
AC50 (Cytochrome P450 2D6): 31.6 µM (inconclusive)
AC50 (Cytochrome P450 3A4): 39.8 µM (inconclusive)

O=C(SCc1cccc2ccccc12)c1ccc(Cl)cc1
AC50 (Cytochrome P450 1A2): 0.794 µM (inconclusive)

COc1ccc(OC)c(NC(=O)CC(Cc2ccccc2OC)C(=O)O)c1 (configuration not stated)
AC50 (Cytochrome P450 1A2): 0.0316 µM (inconclusive)

O=c1c(-c2ccccc2)nc2cnc(N3CCOCC3)nc2n1Cc1cccs1
AC50 (Cytochrome P450 2C9): 20 µM (inconclusive)
AC50 (Cytochrome P450 1A2): 2.51 µM (inconclusive)

Cc1cccc(Oc2ccc(S(=O)(=O)N3CCCCC3)cc2N)c1
IC50 [1]: 11.2 µM (not active)

CC(C)NC(=S)NC(=O)c1ccc(-c2ccccc2)cc1
EC50 [6]: > 53 µM (inactive)

CS(=O)(=O)N1CCc2cc(NC(=O)c3ccc(Cl)cc3Cl)ccc21
IC50 [1]: 13.7 µM (not active)

Cc1nc2ncnn2c(C)c1CCC(=O)NCCC1=CCCCC1
AC50 (Cytochrome P450 2C9): 14.1 µM (inconclusive)
AC50 (Cytochrome P450 3A4): 15.8 µM (inconclusive)

Cc1ccnc(NC(=O)CCCOc2ccc(Cl)cc2C)c1
IC50 [1]: 0.444 µM (not active)

CCOC(=O)COc1ccc2c(=O)c(-c3ccccc3)coc2c1
IC50 (cells): < 0.1 µM (active)

O=C(Nc1cccc(C(F)(F)F)c1)N(Cc1ccc(Cl)cc1)CC(O)C(F)(F)F (configuration not stated)
EC50 [3]: 23.8 µM (active)
AC50 (Cytochrome P450 3A4): 22.4 µM (inconclusive)
EC50 [4]: 19.6 µM (active)

O=[N+]([O-])c1cc(C(F)(F)F)ccc1NCCNC(=S)Nc1ccc(Cl)cc1
IC50 [1]: 7.92 µM (not active)
EC50 (Streptokinase A): > 150 µM (not active)
